Measured values reported in patent US11993588B2, “Crystalline forms of a MAGL inhibitor” (H. Lundbeck A/S, priority 2016, dated 2024).

Columns and labels:
Type in all cases: physicochemical
[1] = Solvent solubility screen for Compound 2; settings: amorphous HCl salt; for solubility: 40 °C, thermodynamic from solid, read-out: Approximate Solubility
Procedure: Approximately 10 mg of amorphous HCl salt (from 500 mg batch) was placed in each of 28 vials and 5 volume aliquots of the appropriate solvent systems were added to the appropriate vial. Between each addition, the mixture was checked for dissolution and if no dissolution was apparent, the mixture was heated to ca. 40° C. and checked again. This procedure was continued until dissolution was observed or 100 volumes of solvent had been added. Then a further addition of 100 volumes was added to samples which had not dissolved. If 200 volumes of solvent were added without dissolution of the material, solubility was calculated to be below this point.

[2] = Gravimetric vapor sorption (GVS); settings: for weight uptake / hygroscopic nature: GVS; for weight uptake: at 90% RH; for Post-GVS analysis by XRPD (form change): after GVS sorption/desorption cycle
Procedure: Approximately 10 mg of sample was placed into a mesh vapour sorption balance pan and loaded into an IGASorp Moisture Sorption Analyser balance by Hiden Analytical. The sample was subjected to a ramping profile from 40-90% relative humidity (RH) at 10% increments, maintaining the sample at each step until a stable weight had been achieved (98% step completion). After completion of the sorption cycle, the sample was dried using the same procedure to 0% RH, and finally taken back to the starting point of 40% RH. The weight change during the sorption/desorption cycles were plotted, allowing for the hygroscopic nature of the sample to be determined.

[3] = Dynamic vapor sorption (DVS)
Procedure: Approximately 10 mg of sample was placed into a mesh vapour sorption balance pan and loaded into a DVS-1 dynamic vapour sorption balance by Surface Measurement Systems. The sample was subjected to a ramping profile from 40-90% relative humidity (RH) at 10% increments, maintaining the sample at each step until a stable weight had been achieved (99.5% step completion). After completion of the sorption cycle, the sample was dried using the same procedure to 0% RH and then a second sorption cycle back to 40% RH. The weight changes during the sorption/desorption cycles were plotted, allowing for the hygroscopic nature of the sample to be determined. XRPD analysis was then carried out on any solid retained.

7-day stability testing = assay: 7-day stability testing
Procedure: (§1) Form 2 of Compound 2 was scaled up in two solvents. Material underwent 7-day stability testing and/or aqueous solubility assessment. The 7-day stability testing was conducted as follows. Material was exposed to environments of 40° C./75% RH, ambient light and 80° C. for 7 days and the resulting solids analysed by XRPD to determine if any changes had occurred, and by HPLC to determine purity. The aqueous solubility assessment was conducted as follows. A slurry was created in deionised water (5.1 mg of Form 2 and 300 μL of water) and shaken for ca. 24 hours at ambient temperature (ca. 22° C.). The initial pH and final pH were measured. The resulting mixture was then isolated by centrifuge filtration, and the solution obtained analysed by HPLC to calculate the concentration of material dissolved. Remaining solid was analysed by XRPD to determine if any changes had occurred on slurrying.

[4] = Aqueous solubility assessment
Procedure: as §1

[5] = Solubility measurement in t-BME; settings: organic solvent or mixture, thermodynamic from solid; solvent addition method, 10 mg sample, up to 100 mL t-BME
Procedure: Solubility of Form 1 of Compound 2 was measured using the solvent addition method as described in Example 14 on 10 mg of sample. t-BME was added in 1 mL aliquots up to 10 mL, then in 5 mL and 10 mL aliquots up to a total volume of 100 mL.

[6] = Competitive slurrying of Form 1 and 2 mixtures; settings: 50:50 Form 1 and 2 slurries in acetone, ethyl acetate, methylethyl ketone, 2-propanol; 60° C. and ambient, ca. 48 hours
Procedure: Four solvents (acetone, ethyl acetate, methylethyl ketone, and 2-propanol) were chosen for competitive slurrying. Saturated solutions were prepared of Form 1 in the chosen solvents and added to 20 mg of 50:50 Form 1 and 2 mixtures to create slurries. The slurries were shaken at 60° C. and ambient temperature for ca. 48 hours. Solids were then isolated by centrifuge filtration and analysed by XRPD.

[7] = Heating to 140° C., cooling and XRPD; settings: heated to 140° C. and allowed to cool
Procedure: Material from Compound 2 (Form 1) was also heated to 140° C. and allowed to cool. The material was analysed by XRPD (FIG. 12), to determine any form change, which could be consistent with a solid-solid transition.

[8] = listed as Form 1 of Compound 2, mono-HCl salt
[9] = listed as Form 2 (Compound 2), mono-HCl salt

For `Cl.O=C(OC(C(F)(F)F)C(F)(F)F)N1CCN(Cc2ccc(C(F)(F)F)cc2N2CCCC2)CC1` [Compound 2, 1,1,1,3,3,3-hexafluoropropan-2-yl 4-(2-(pyrrolidin-1-yl)-4-(trifluoromethyl)benzyl)piperazine-1-carboxylate mono-HCl salt], the solubility ([1]; aqueous with cosolvent or surfactant or cyclodextrin, 2-Propanol:water (50%), partial dissolution) was under 5 mg/mL, the solubility ([1]; aqueous with cosolvent or surfactant or cyclodextrin, Acetone:water (50%), partial dissolution) was under 5 mg/mL and the solubility ([1]; aqueous with cosolvent or surfactant or cyclodextrin, Methanol:water (50%)) was under 5 mg/mL. The solubility ([1]; organic solvent or mixture, 1,4-Dioxane) was 5 mg/mL, the solubility ([1]; organic solvent or mixture, 1-Butanol) was under 5 mg/mL and the solubility ([1]; organic solvent or mixture, 2-Ethoxyethanol, precipitated overnight) was 49 mg/mL. It also gave a solubility ([1]; organic solvent or mixture, 2-Methyl tetrahydrofuran) of under 5 mg/mL, a solubility ([1]; organic solvent or mixture, 2-Propanol) of 5 mg/mL and a solubility ([1]; organic solvent or mixture, Acetone) of 40 mg/mL. The solubility ([1]; organic solvent or mixture, Acetonitrile) was 40 mg/mL, the solubility ([1]; organic solvent or mixture, Anisole, partial dissolution) was under 5 mg/mL and the solubility ([1]; organic solvent or mixture, Dichloromethane, precipitated overnight) was 70 mg/mL. For the same compound, the solubility ([1]; organic solvent or mixture, Diisopropyl Ether) was under 5 mg/mL, the solubility ([1]; organic solvent or mixture, Dimethylacetamide) was 99 mg/mL and the solubility ([1]; organic solvent or mixture, Dimethylformamide) was 99 mg/mL. It also gave a solubility ([1]; organic solvent or mixture, Dimethylsulfoxide) of 66 mg/mL, a solubility ([1]; organic solvent or mixture, Ethanol) of 33 mg/mL and a solubility ([1]; organic solvent or mixture, Ethyl acetate) of 5 mg/mL. It also gave a solubility ([1]; organic solvent or mixture, Isopropyl acetate) of under 5 mg/mL, a solubility ([1]; organic solvent or mixture, Methanol) of 101 mg/mL and a solubility ([1]; organic solvent or mixture, Methyl isobutyl ketone, partial dissolution) of under 5 mg/mL. For the same compound, the solubility ([1]; organic solvent or mixture, Methylethyl ketone) was 28 mg/mL, the solubility ([1]; organic solvent or mixture, N-Methyl-2-pyrrolidone) was 101 mg/mL and the solubility ([1]; organic solvent or mixture, Tetrahydrofuran, precipitated overnight) was 25 mg/mL. For the same compound, the solubility ([1]; organic solvent or mixture, Toluene) was under 5 mg/mL, the solubility ([1]; organic solvent or mixture, tert-Amyl alcohol) was under 5 mg/mL and the solubility ([1]; organic solvent or mixture, tert-Butylmethyl ether) was under 5 mg/mL. The solubility ([1]; Water) was under 5 mg/mL, the “concentration at which dissolution was initially observed” value ([1]; Acetone:water (50%), precipitated after ca. 2 h) was 18000 µg/mL and the weight uptake [2, 8] was under 0.1%. The weight uptake [2, 9] was under 0.08%, the hygroscopic nature [2, 8] was “very non-hygroscopic” and the hygroscopic nature [2, 9] was “(very) non-hygroscopic”. The “Post-GVS analysis by XRPD (form change)” value [2, 8] was “remain unchanged”, the “Post-GVS analysis by XRPD (form change)” value [2, 9] was “remained the same crystalline form” and the hygroscopic nature ([3]; DVS) was “non-hygroscopic”. The total uptake ([3]; DVS, at 90% RH) was under 0.12%, the “Post-DVS XRPD analysis (form change)” value ([3]; after DVS cycle) was “remain the same crystalline form” and the “HPLC purity after stability testing” value (7-day stability testing; 40° C./75% RH for 7 days) was over 99.9%. The “solid form by XRPD after stability testing” value (7-day stability testing; 40° C./75% RH, ambient light and 80° C. for 7 days) was “remain the same form”, the “HPLC purity after stability testing” value (7-day stability testing; 80° C. for 7 days) was 99.9% and the “HPLC purity after stability testing” value (7-day stability testing; ambient light / ambient conditions for 7 days) was over 99.9%. For the same compound, the “dissociation of the salt in water” value [4, 8] was “dissociates readily to the free base”, the “dissociation of the salt in water” value [4, 9] was “dissociate to the free base” and the solubility at 24 h ([4]; thermodynamic from solid, slurry in deionised water, ca. 24 hours, ambient (ca. 22° C.), initial pH 1.87, final pH 1.68) was 0.5 mg/mL. The solubility [5] was under 0.1 mg/mL, the “relative thermodynamic stability of polymorphs” value [6] was “thermodynamically more stable than Form 1” and the “form change by XRPD after heating” value [7] was “remain unchanged”.
